According to patent US12559461B2, “Antibiotic adjuvant compounds” (UNIVERSITY OF NOTRE DAME DU LAC, priority 2020, dated 2026):
Read-outs that look alike come from different tables or passages of the source.

Legend:
[1] = tested on: A. baumannii isolates (23 strains); experiment: Minimum inhibitory concentration against AB isolates; format: cell-based, Acinetobacter baumannii; details: for CLR MIC: CLR alone; for MIC: Acinetobacter baumannii, compound alone, read-out: Minimum inhibitory concentration of compound
Description: (§1) Broth microdilution method for MIC determination. Day cultures (6 h) of each bacterial strain in cation adjusted Mueller Hinton II broth (CAMHB, Fisher Scientific U.S.) were subcultured to 5×10^5 CFU/mL in CAMHB. Aliquots (1 mL) were placed in culture tubes and compound was added from 10 mM stock samples in DMSO, such that compound concentration equaled highest concentration tested (200 μM). Samples were then aliquoted (200 μL) into the first wells of a 96-well plate, with all remaining wells being filled with 100 μL of initial bacterial subculture. Row one wells were mixed five times, before 100 μL was transferred to row two. Row two was then mixed five times, and 100 μL was transferred to row three. This process was repeated until the final row had been mixed; this served to serially dilute the compound. Plates were then covered with GLAD Press n'Seal and incubated under stationary conditions at 37° C. for 16 h. MIC values were then recorded as the lowest concentration at which no bacterial growth was observed.

AB5075 [2] = experiment: Broth microdilution clarithromycin (CLR) potentiation and dose-response of adjuvant; format: cell-based, Acinetobacter baumannii
Description: (§2) Bacterial Strains and Antimicrobial Agents. Acinetobacter baumannii clinical isolate 5075 was obtained from Dr. Colin Manoil at the University of Washington. Colonies were grown on lysogeny broth (LB) agar. Cation-adjusted Mueller-Hinton Broth (CAMHB) (catalog number 212322) were purchased from BD Diagnostics. LB broth was purchased from Fisher Scientific (catalog number BP9722-2). […] Colistin sulfate salt (catalog number C4461) was purchased from Sigma Aldrich. All assays were completed in duplicate and repeated at least two separate times. All compounds were dissolved as their HCl salts in molecular biology grade DMSO as 10 or 100 mM stock solutions and stored at −20° C. Colistin was dissolved in sterile water while clarithromycin was dissolved in molecular biology grade DMSO.
(§3) Broth microdilution method for antibiotic potentiation. Day cultures (6 h) of bacteria in CAMHB were subcultured to 5×10^5 CFU/mL in CAMHB. Aliquots (4 mL) were placed in culture tubes and dosed with compound from 10 mM stock samples to give the desired concentration of the compound to be tested against the particular bacterial strain; this insured non-toxic DMSO concentrations ≤0.3% in each well. 1 mL of the resulting solution was placed in a separate culture and dosed with antibiotic at the highest concentration to be tested. Bacteria treated with antibiotic alone served as the control. Row one of a 96-well plate was filled with 200 μL of the antibiotic/2-AI solution, and rows 2-12 were filled with 100 μL each of the remaining 4 mL of bacterial subculture containing adjuvant at the desired concentration, except for the control lane which contained only bacterial subculture. Row one was then mixed five times, and 100 μL was transferred to row two, which was then mixed five times before being transferred to row three. This process was repeated until all rows had been mixed, except for row twelve which would have only 2-AI to serve as a control to monitor potential toxicity. The 96-well plate was then covered in Glad Press n'Seal and incubated under stationary conditions at 37° C. for 16 h. MIC values were determined as the lowest concentration at which no bacterial growth was observed, and fold reductions were determined by comparison to antibiotic control lane.
(§4) Dose-response of Adjuvant Assay. The procedure for ‘broth microdilution method for antibiotic potentiation’ was followed using 4 mL aliquots of adjuvant at various concentrations: 0, 5, 7.5, 10, 15, 20, 25, and 30 μM.

AB5075 [3] = experiment: Evolution of clarithromycin resistance by serial passage; format: cell-based, Acinetobacter baumannii
Description: A. baumannii 5075 was grown in CAMHB overnight then subcultured (5×10^5 CFU/mL) in 6 mL of fresh CAMHB. Adjuvant was added into this 6-mL subculture at either 10 or 30 μM concentrations. […] This was serially repeated for a period of nine days.

AB5075 [4] = details: CLR alone, previously reported; cited from earlier work
AB5075 [5] = experiment: Broth microdilution MIC of compound alone (standalone toxicity); format: cell-based, Acinetobacter baumannii
Description: as §2, §1

AB5075 [6] = experiment: Colistin MIC in presence of adjuvant (broth microdilution antibiotic potentiation); format: cell-based, Acinetobacter baumannii; details: compound tested at 30 μM
Description: as §2, §3, §4

[7] = tested on: A. baumannii isolates (23 strains); experiment: Clarithromycin potentiation against AB isolates; format: cell-based, Acinetobacter baumannii; details: adjuvant at 7.5 μM
Description: as §3

CC[C@H]1OC(=O)[C@H](C)[C@@H](O[C@H]2C[C@@](C)(OC)[C@@H](O)[C@H](C)O2)[C@H](C)[C@@H](O[C@@H]2O[C@H](C)C[C@H](N(C)C)[C@H]2O)[C@](C)(OC)C[C@@H](C)C(=O)[C@H](C)[C@@H](O)[C@]1(C)O [CLR, clarithromycin, reference compound]
16 µg/mL: CLR MIC ([1]; A. baumannii strain 3806) | CLR MIC ([1]; A. baumannii strain 8967) | CLR MIC (AB5075 [3]; serial passage with CLR + adjuvant 1 (30 μM), day 2, compound 1 tested at 0 μM)
32 µg/mL: CLR MIC ([1]; A. baumannii strain 3560) | CLR MIC ([1]; A. baumannii strain 3927) | CLR MIC ([1]; A. baumannii strain 4052) | CLR MIC ([1]; A. baumannii strain 4269) | CLR MIC ([1]; A. baumannii strain 4448) | CLR MIC ([1]; A. baumannii strain 4456) | CLR MIC ([1]; A. baumannii strain 4490) | CLR MIC ([1]; A. baumannii strain 4795) | CLR MIC ([1]; A. baumannii strain 4878) | CLR MIC ([1]; A. baumannii strain 4957) | CLR MIC ([1]; A. baumannii strain 4991) | CLR MIC ([1]; A. baumannii strain 5001) | CLR MIC ([1]; A. baumannii strain 5256) | CLR MIC (AB5075 [2]; CLR alone, no adjuvant) | CLR MIC (AB5075 [3]; CLR-alone exposure of AB5075, day 0) | CLR MIC (AB5075 [3]; passaging with CLR and 30 μM adjuvant 1, day 2 and day 9, without adjuvant) | CLR MIC (AB5075 [3]; serial passage with CLR + adjuvant 1 (30 μM), day 4, compound 1 tested at 0 μM) | CLR MIC (AB5075 [3]; serial passage with CLR + adjuvant 1 (30 μM), day 6, compound 1 tested at 0 μM) | CLR MIC (AB5075 [3]; serial passage with CLR + adjuvant 1 (30 μM), day 8, compound 1 tested at 0 μM) | CLR MIC (AB5075 [3]; serial passage with CLR + adjuvant 1 (30 μM), day 10, compound 1 tested at 0 μM) | CLR MIC (AB5075 [4])
512 µg/mL: CLR MIC (AB5075 [3]; CLR-alone exposure of AB5075, day 6) | CLR MIC (AB5075 [3]; CLR-resistant AB5075 mutant from CLR-alone passaging, no adjuvant)
64 µg/mL: CLR MIC ([1]; A. baumannii strain 3785) | CLR MIC ([1]; A. baumannii strain 4025) | CLR MIC ([1]; A. baumannii strain 4026) | CLR MIC ([1]; A. baumannii strain 4027) | CLR MIC ([1]; A. baumannii strain 4498) | CLR MIC ([1]; A. baumannii strain 4857) | CLR MIC ([1]; A. baumannii strain 5197) | CLR MIC ([1]; A. baumannii strain 5711)
128 µg/mL: CLR MIC (AB5075 [3]; CLR-alone exposure of AB5075, day 4)

Cl.Nc1nc(-c2ccc(NC(=O)c3ccc(Cl)c(Cl)c3)cc2)c[nH]1 [Compound 4r]
100 µM: MIC (AB5075 [5])
eight: Fold Reduction of CLR MIC (AB5075 [2]; compound tested at 10 μM)
0.5 µg/mL: CLR MIC (AB5075 [2]; compound tested at 20 μM)
8 µg/mL: CLR MIC (AB5075 [2]; compound tested at 7.5 μM)
64 fold: Fold Reduction of CLR MIC (AB5075 [2]; compound tested at 30 μM)
4 µg/mL: Colistin MIC (AB5075 [6]) | CLR MIC (AB5075 [2]; compound tested at 10 μM)

Cl.Nc1nc(-c2ccc(NC(=O)Nc3cc(Br)cc(Br)c3)cc2)c[nH]1 [Compound 20a, 1-(4-(2-amino-1H-imidazol-4-yl)phenyl)-3-(3,5-dibromophenyl)urea hydrochloride]
1 µg/mL: CLR MIC + adjuvant ([7]; A. baumannii strain 3560) | CLR MIC + adjuvant ([7]; A. baumannii strain 3785) | CLR MIC + adjuvant ([7]; A. baumannii strain 4025) | CLR MIC + adjuvant ([7]; A. baumannii strain 4026) | CLR MIC + adjuvant ([7]; A. baumannii strain 4027) | CLR MIC + adjuvant ([7]; A. baumannii strain 4456) | CLR MIC + adjuvant ([7]; A. baumannii strain 4490) | CLR MIC + adjuvant ([7]; A. baumannii strain 5001) | CLR MIC + adjuvant ([7]; A. baumannii strain 5197) | CLR MIC + adjuvant ([7]; A. baumannii strain 5711)
8 fold: Fold Reduction of CLR MIC (AB5075 [2]; compound tested at 5 μM)
0.25 µg/mL: CLR MIC (AB5075 [2]; compound tested at 7.5 μM) | CLR MIC + adjuvant ([7]; A. baumannii strain 3806) | CLR MIC + adjuvant ([7]; A. baumannii strain 5256) | CLR MIC + adjuvant ([7]; A. baumannii strain 8967)
0.5 µg/mL: CLR MIC + adjuvant ([7]; A. baumannii strain 3927) | CLR MIC + adjuvant ([7]; A. baumannii strain 4052) | CLR MIC + adjuvant ([7]; A. baumannii strain 4448) | CLR MIC + adjuvant ([7]; A. baumannii strain 4795) | CLR MIC + adjuvant ([7]; A. baumannii strain 4857) | CLR MIC + adjuvant ([7]; A. baumannii strain 4878) | CLR MIC + adjuvant ([7]; A. baumannii strain 4957) | CLR MIC + adjuvant ([7]; A. baumannii strain 4991)
100 µM: MIC ([1]; A. baumannii strain 3927) | MIC ([1]; A. baumannii strain 4025) | MIC ([1]; A. baumannii strain 4448) | MIC ([1]; A. baumannii strain 4490) | MIC ([1]; A. baumannii strain 8967)
256 fold: Fold Reduction of CLR MIC (AB5075 [2]; compound tested at 15 μM)
4 µg/mL: CLR MIC (AB5075 [2]; compound tested at 5 μM)
128 fold: Fold Reduction of CLR MIC (AB5075 [2]; compound tested at 7.5 μM)
2 µg/mL: CLR MIC + adjuvant ([7]; A. baumannii strain 4269) | CLR MIC + adjuvant ([7]; A. baumannii strain 4498)
0.125 µg/mL: CLR MIC (AB5075 [2]; compound tested at 15 μM)
50 µM: MIC (AB5075 [5]; Acinetobacter baumannii) | MIC ([1]; A. baumannii strain 3785) | MIC ([1]; A. baumannii strain 4026) | MIC ([1]; A. baumannii strain 4027) | MIC ([1]; A. baumannii strain 4052) | MIC ([1]; A. baumannii strain 4269) | MIC ([1]; A. baumannii strain 4498) | MIC ([1]; A. baumannii strain 4857) | MIC ([1]; A. baumannii strain 4878) | MIC ([1]; A. baumannii strain 4957) | MIC ([1]; A. baumannii strain 4991) | MIC ([1]; A. baumannii strain 5001)
25 µM: MIC ([1]; A. baumannii strain 3560) | MIC ([1]; A. baumannii strain 3806) | MIC ([1]; A. baumannii strain 4456) | MIC ([1]; A. baumannii strain 4795) | MIC ([1]; A. baumannii strain 5197) | MIC ([1]; A. baumannii strain 5256) | MIC ([1]; A. baumannii strain 5711)
